2 compounds from patent US20030194748A1, “Method for labeling with tritium” (priority 2000, published 2003) can be followed below.

The assay has as its target T1, TXA2 receptor (Homo sapiens, UniProt P21731).
T1 construct: human platelet membrane fraction was prepared; from tissue; host or cells: human platelets (membrane fraction from the blood of normal adult donors)
T1 sequence (P21731 1-343): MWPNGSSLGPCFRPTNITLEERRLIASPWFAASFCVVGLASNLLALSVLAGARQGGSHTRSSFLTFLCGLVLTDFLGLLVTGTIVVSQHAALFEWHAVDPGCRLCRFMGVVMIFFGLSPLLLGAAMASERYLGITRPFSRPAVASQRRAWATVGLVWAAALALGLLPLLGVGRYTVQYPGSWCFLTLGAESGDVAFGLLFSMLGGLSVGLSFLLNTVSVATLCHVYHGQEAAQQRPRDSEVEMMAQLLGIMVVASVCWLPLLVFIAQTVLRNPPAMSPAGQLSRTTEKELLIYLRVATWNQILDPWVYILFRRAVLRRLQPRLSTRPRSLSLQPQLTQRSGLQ
Description: TXA2 receptor binding assay. Conditions: human platelet membrane fraction; displacement of 2 nM [3H](+)-S-145 sodium salt; 90 min at room temperature; read-out: inhibition activity IC50. The procedure: Blood which was obtained using a plastic syringe contained 3.8% sodium citrate from the vein of normal human (adult male and female) was put into a plastic tube, and after lightly mixing with tumbling, centrifuged at 1800 rpm, for 10 min. at a room temperature to obtain platelet rich plasma (PRP) in supernatant. The PRP was further centrifuged at 2,300 rpm, for 22 min. at a room temperature to obtain platelets. The obtained platelets was homogenized using homogenizer (Ultra-Turrax), and then, centrifuged at 20,000 rpm, for 10 min. at 4° C. to obtain a fraction of platelet membrane. The membrane fraction was subjected to a quantitative assay for a protein to be adjusted to 2 mg/ml, and kept at −80° C. in a freezer until a binding assay is conducted. […]
To 0.2 ml of a binding reaction mixture (50 mM Tris/HCl, pH 7.4, 10 mM MgCl2), human platelet membrane fraction (0.05 mg) and 26.4 Ci/mmol of 2 nM [^3H](+)-(5Z)-7-[3-endo-[(phenylsulfonyl)amino]bicyclo[2.2.1]hepto-2-exo-yl] heptenic acid sodium salt (Japanese Patent Publication No. H5-79060, referred hereinafter to (+)-S-145 sodium salt) were added, and reacted for 90 min at room temperature. After reaction, the reaction was filtered by using grass fiber filter, washed several times with cold saline, and then, radioactivity remaining on the filter was assayed. […]

With `O=C(O)CCC/C=C\C[C@H]1[C@@H]2CC[C@@H](C2)[C@@H]1NC(=O)c1csc2ccc(O)cc12` [Compound 1], the IC50 is 150 nM.

With `COC(=O)CCC/C=C\C[C@H]1[C@@H]2CC[C@@H](C2)[C@@H]1NC(=O)c1cccc2ccsc12` [Compound 2], the 50% inhibitory concentration (IC50) is 3800 nM.
